{"source": "patent US10844062B2", "about": "“Pyridine derivative inhibiting RAF kinase and vascular endothelial growth factor receptor, method for preparing same, pharmaceutical composition containing same, and use thereof” (SAMJIN PHARMACEUTICAL CO., LTD., priority 2016, dated 2020)", "data": [{"system": "LS513 KRAS G12V (colon)", "test": "MTT assay", "assay_type": "cell-based", "settings": "Homo sapiens, LS-513, 72 h, Table 4; 3 days incubation; read-out: MTT assay IC50 KRAS mutant (Colon) LS513 KRAS G12V", "procedure,_shortened": "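Cells were seeded at line-dependent density and stabilised overnight at 37 °C, then exposed to compounds for 3 days at 37 °C. MTT was then added for 2 h and the formazan dissolved in DMSO.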", "units": {"IC50": "nM"}, "values": [{"compound": "COc1cc(C(=O)Nc2cc(Nc3ncccc3-c3ncnc4[nH]cnc34)ccc2F)cc(C(F)(F)F)c1", "note": "[Example 63, N-2-Fluoro-5-[3-(9H-Purin-6-Yl)Pyridin-2-Ylamino)Phenyl-3-Methoxy-5-(Trifluoromethyl)Benzamide]", "IC50": 690}, {"compound": "CCN1CCN(Cc2ccc(NC(=O)Nc3ccc(F)c(Nc4ncccc4-c4ncnc5[nH]cnc45)c3F)cc2C(F)(F)F)CC1", "note": "[Example 60, 1-(3-(3-(9H-Purin-6-Yl)Pyridin-2-Ylamino)-2,4-Difluorophenyl)-3-(4-((4-Ethylpiperazin-1-Yl)Methyl)-3-(Trifluoromethyl)Phenyl)Urea]", "IC50": "> 10000"}, {"compound": "CC(C)(C#N)c1cccc(C(=O)Nc2cc(Nc3ncccc3-c3ncnc4[nH]ccc34)ccc2F)c1", "note": "[Example 91, 3-(2-Cyanopropan-2-Yl)-N-2-Fluoro-5-[3-(7H-Pyrrolo[2,3-d]Pyrimidin-4-Yl)Pyridin-2-Ylamino]Phenyl Benzamide]", "IC50": 1120}, {"compound": "CS(=O)(=O)c1cccc(C(=O)Nc2cc(Nc3ncccc3-c3ncnc4[nH]cnc34)ccc2F)c1", "note": "[Example 126, N-5-[(3-(9H-purin-6-yl)pyridin-2-yl)amino]-2-fluorophenyl-3-(methylsulfonyl)benzamide]", "IC50": 1110}, {"compound": "CC(C)(C#N)c1cccc(NC(=O)c2cc(Nc3ncccc3-c3ncnc4[nH]cnc34)ccc2F)c1", "note": "[Example 112, 5-[3-(9H-Purin-6-Yl)Amino]-N-[3-(2-Cyanopropan-2-Yl)Phenyl]-2-Fluorobenzamide]", "IC50": "> 10000"}, {"compound": "Cc1cc(C(=O)Nc2cc(Nc3ncccc3-c3ncnc4[nH]cnc34)ccc2F)ccc1F", "note": "[Example 137, N-5-[(3-(9H-purin-6-yl)pyridin-2-yl)amino]-2-fluorophenyl-4-fluoro-3-methylbenzamide]", "IC50": 1060}, {"compound": "O=C(Nc1cccc(C(F)(F)F)c1)Nc1cc(Nc2ncccc2-c2ncnc3[nH]cnc23)ccc1F", "note": "[Example 118, 1-5-[(3-(9H-purin-6-yl)pyridin-2-yl)amino]-2-fluorophenyl-3-[3-(trifluoromethyl)phenyl]urea]", "IC50": 153}, {"compound": "O=C(Nc1cccc(C(F)(F)F)c1)c1cc(Nc2ncccc2-c2ncnc3[nH]cnc23)ccc1F", "note": "[Example 73, 2-Fluoro-5-[3-(9H-Purin-6-Yl)Pyridin-2-Ylamino]-N-(3-Trifluoromethylphenyl)Benzamide]", "IC50": 80}, {"compound": "CC(C)(C#N)c1cc(C(=O)Nc2ccc(F)c(Nc3ncccc3-c3ncnc4[nH]cnc34)c2F)cc(F)c1F", "note": "[Example 44, N-(3-(3-(9H-Purin-6-Yl)Pyridin-2-Ylamino)-2,4-Difluorophenyl)-3-(2-Cyanopropan-2-Yl)-4,5-Difluorobenzamide]", "IC50": 1320}, {"compound": "O=C(Nc1cc(Nc2ncccc2-c2ncnc3[nH]cnc23)ccc1F)c1cc(Cl)cc(OC(F)(F)F)c1", "note": "[Example 142, N-5-[(3-(9H-purin-6-yl)pyridin-2-yl)amino]-2-fluorophenyl-3-chloro-5-(trifluoromethoxy)benzamide]", "IC50": 128}, {"compound": "O=C(Nc1cccc(Nc2ncccc2-c2ncnc3[nH]cnc23)c1F)c1cccc(C(F)(F)F)c1", "note": "[Example 122, N-3-[(3-(9H-purin-6-yl)pyridin-2-yl)amino]-2-fluorophenyl-3-(trifluoromethyl)benzamide]", "IC50": 6580}, {"compound": "COc1ccc(NC(=O)c2cccc(C(C)(C)C#N)c2)cc1Nc1ncccc1-c1ncnc2[nH]cnc12", "note": "[Example 152, N-3-[(3-(9H-purin-6-yl)pyridin-2-yl)amino]-4-methoxyphenyl-3-(2-cyanopropan-2-yl)benzamide]", "IC50": 2960}, {"compound": "O=C(Nc1ccc(F)c(Nc2ncccc2-c2ncnc3[nH]cnc23)c1)c1cccc(C(F)(F)F)c1", "note": "[Example 50, N-(3-(3-(9H-Purin-6-Yl)Pyridin-2-Ylamino)-4-Fluorophenyl)-3-(Trifluoromethyl)Benzamide]", "IC50": 221}, {"compound": "N#CCc1ccc(C(=O)Nc2ccc(Nc3ncccc3-c3ncnc4[nH]cnc34)c(F)c2)cc1", "note": "[Example 78, N-4-[(3-(9H-Purin-6-Yl)Pyridin-2-Yl)Amino]-3-Fluorophenyl-4-(Cyanomethyl)Benzamide]", "IC50": 137}, {"compound": "O=C(Nc1ccc(F)c(Nc2ncccc2-c2ncnc3[nH]cnc23)c1F)c1cc([N+](=O)[O-])cc(C(F)(F)F)c1", "note": "[Example 40, N-(3-(3-(9H-Purin-6-Yl)Pyridin-2-Ylamino)-2,4-Difluorophenyl)-3-Nitro-5-(Trifluoromethyl)Benzamide]", "IC50": 163}, {"compound": "CC(C)(C#N)c1cc(C(=O)Nc2ccc(F)c(Nc3ncccc3-c3ncnc4[nH]cnc34)c2F)ccc1Cl", "note": "[Example 41, N-(3-(3-(9H-Purin-6-Yl)Pyridin-2-Ylamino)-2,4-Difluorophenyl)-4-Chloro-3-(2-Cyanopropan-2-Yl)Benzamide]", "IC50": 475}, {"compound": "O=C(Nc1ccc(F)c(Nc2ncccc2-c2ncnc3[nH]cnc23)c1F)c1ccc(C(F)(F)F)cc1", "note": "[Example 27, N-(3-(3-(9H-purin-6-yl)pyridin-2-ylamino)-2,4-difluorophenyl)-4-(trifluoromethyl)benzamide]", "IC50": "> 10000"}, {"compound": "COc1cccc(C(=O)Nc2ccc(F)c(Nc3ncccc3-c3ncnc4[nH]cnc34)c2F)c1", "note": "[Example 35, N-(3-(3-(9H-Purin-6-Yl)Pyridin-2-Ylamino)-2,4-Difluorophenyl)-3-Methoxybenzamide]", "IC50": "> 10000"}, {"compound": "O=C(Nc1ccc(F)c(Nc2ncccc2-c2ncnc3[nH]cnc23)c1F)c1cc(N2CCSCC2)cc(C(F)(F)F)c1", "note": "[Example 11, N-(3-(3-(9H-purin-6-yl)pyridin-2-ylamino)-2,4-difluorophenyl)-3-thiomorpholino-5-(trifluoromethyl)benzamide]", "IC50": 996}, {"compound": "O=C(Nc1cc(Nc2ncccc2-c2ncnc3[nH]cnc23)ccc1F)c1cc([N+](=O)[O-])cc(C(F)(F)F)c1", "note": "[Example 62, N-2-Fluoro-5-[3-(9H-Purin-6-Yl)Pyridin-2-Ylamino)Phenyl-3-Nitro-5-(Trifluoromethyl)Benzamide]", "IC50": 702}, {"compound": "O=C(Nc1cc(Nc2ncccc2-c2ncnc3[nH]cnc23)ccc1F)c1cccc(OC(F)(F)F)c1", "note": "[Example 131, N-5-[(3-(9H-purin-6-yl)pyridin-2-yl)amino]-2-fluorophenyl-3-(trifluoromethoxy)benzamide]", "IC50": 102}, {"compound": "O=C(Nc1ccc(F)c(Nc2ncccc2-c2ncnc3[nH]cnc23)c1F)c1cc(N2CCC(O)CC2)cc(C(F)(F)F)c1", "note": "[Example 12, N-(3-(3-(9H-purin-6-yl)pyridin-2-ylamino)-2,4-difluorophenyl)-3-(4-hydroxypiperidin-1-yl)-5-(trifluoromethyl)benzamide]", "IC50": 1020}, {"compound": "O=C(Nc1ccc(F)c(Nc2ncccc2-c2ncnc3[nH]cnc23)c1F)c1cccc([N+](=O)[O-])c1", "note": "[Example 34, N-(3-(3-(9H-Purin-6-Yl)Pyridin-2-Ylamino)-2,4-Difluorophenyl)-3-Nitrobenzamide]", "IC50": "> 10000"}, {"compound": "O=C(Nc1cc(Nc2ncccc2-c2ncnc3[nH]ccc23)ccc1F)c1cccc(C(F)(F)F)c1", "note": "[Example 87, N-2-Fluoro-5-[3-(7H-Pyrrolo[2,3-d]Pyrimidin-4-Yl)Pyridin-2-Ylamino]Phenyl-3-Trifluoromethyl Benzamide]", "IC50": 2180}, {"compound": "COc1ccc(C(=O)Nc2cc(Nc3ncccc3-c3ncnc4[nH]cnc34)ccc2F)cc1OC(F)(F)F", "note": "[Example 150, N-5-[(3-(9H-purin-6-yl)pyridin-2-yl)amino]-2-fluorophenyl-4-methoxy-3-(trifluoromethoxy)benzamide]", "IC50": 250}, {"compound": "CC1CCN(c2cc(C(=O)Nc3ccc(F)c(Nc4ncccc4-c4ncnc5[nH]cnc45)c3F)cc(C(F)(F)F)c2)CC1", "note": "[Example 13, N-(3-(3-(9H-purin-6-yl)pyridin-2-ylamino)-2,4-difluorophenyl)-3-(4-methylpiperidin-1-yl)-5-(trifluoromethyl)benzamide]", "IC50": 1150}, {"compound": "O=C(Nc1ccc(F)c(Nc2ncccc2-c2ncnc3[nH]cnc23)c1F)c1ccc2c(c1)OCCO2", "note": "[Example 17, N-(3-(3-(9H-purin-6-yl)pyridin-2-ylamino)-2,4-difluorophenyl)-2,3-dihydrobenzo[b][1,4]dioxine-6-carboxamide]", "IC50": 1160}, {"compound": "CC(C)(C#N)c1cccc(C(=O)Nc2ccc(Nc3ncccc3-c3ncnc4[nH]cnc34)c(F)c2)c1", "note": "[Example 39, N-(4-(3-(9H-Purin-6-Yl)Pyridin-2-Ylamino)-3-Fluorophenyl)-3-(2-Cyanopropan-2-Yl)Benzamide]", "IC50": "> 10000"}, {"compound": "O=C(Nc1cc(Nc2ncccc2-c2ncnc3[nH]cnc23)ccc1F)c1ccc(F)c(OC(F)(F)F)c1", "note": "[Example 143, N-5-[(3-(9H-purin-6-yl)pyridin-2-yl)amino]-2-fluorophenyl-4-fluoro-3-(trifluoromethoxy)benzamide]", "IC50": 559}]}, {"system": "LS513 human colorectal cancer cell line xenograft", "test": "Antitumor effect on human colorectal cancer LS513 cell line xenograft", "assay_type": "in vivo, Balb/c nu/nu nude mice", "settings": "oral, twice a day, 60 mg/kg or 30 mg/kg (dose not specified per compound), 14 days", "excerpt": "In this experiment, 5 to 6-week-old female Balb/c nu/nu nude mice (weighed 18 to 20 g) were used. The mice were provided from Nara Biotech Co., Ltd. During the experiment, all the animals were housed on a mouse constant temperature/constant humidity shelf (Individually Ventilated Cages System, LAB & BIO).\nEach cage (37.2 cm length×19.2 cm width×13.1 cm height) was sterilized with a sterilizer, and eight mice were received in each cage. The mice were maintained in a hygienic environment controlled to a temperature of 20 to 24° C. and a humidity of 40 to 70% with a 12-hr light/12-hr dark cycle. The mice were allowed to access sterilized feed and drinking water ad libitum. The care and treatment of these animals were carried out according to the Laboratory Animal Care Guidelines of Samjin Pharmaceutical Co., Ltd.\nThe mice were acclimated to the housing facility for 1 week, and then 0.1 mL of a cell suspension containing 1×10^7 cells was injected subcutaneously into the right flank of each mouse. After cell transplantation, the volume of the formed tumor was measured, and mice with formed tumors having a volume of 150 mm^3 or more were randomly divided into groups (each consisting of 7 to 8 animals) for treatment with the test compounds and a control. […] Administration of the drugs was continued for 14 days. […] At 3-day intervals from the starting day of the administration, the long axis and short axis of the tumor were measured with digital vernier calipers, and the tumor volume was calculated using the following equation and recorded: Tumor volume (TV)=Long axis×short axis^2/2.\nTumor growth inhibition for absolute tumor volume was calculated using the following equation. In the following equation, V0 is the tumor volume on the first day of drug administration (day 0), and Vt is the tumor volume after last drug administration.", "units": {"antitumor effect (tumor growth inhibition) compared to the vehicle control": "%"}, "values": [{"compound": "COc1cc(C(=O)Nc2cc(Nc3ncccc3-c3ncnc4[nH]cnc34)ccc2F)cc(C(F)(F)F)c1", "note": "[Example 63, N-2-Fluoro-5-[3-(9H-Purin-6-Yl)Pyridin-2-Ylamino)Phenyl-3-Methoxy-5-(Trifluoromethyl)Benzamide]", "antitumor effect (tumor growth inhibition) compared to the vehicle control": 57.9}, {"compound": "CCN1CCN(Cc2ccc(NC(=O)Nc3ccc(F)c(Nc4ncccc4-c4ncnc5[nH]cnc45)c3F)cc2C(F)(F)F)CC1", "note": "[Example 60, 1-(3-(3-(9H-Purin-6-Yl)Pyridin-2-Ylamino)-2,4-Difluorophenyl)-3-(4-((4-Ethylpiperazin-1-Yl)Methyl)-3-(Trifluoromethyl)Phenyl)Urea]", "antitumor effect (tumor growth inhibition) compared to the vehicle control": 69.06}]}]}
